Consider 7 compounds from PubChem BioAssay (NCI).

Among the test systems are A549 NSCLC; ACHN renal; CAKI-1 renal; CCRF-CEM leukemia; HCC-2998 colon; HL-60(TB) leukemia; HS 578T breast; K-562 leukemia; LOX IMVI melanoma; MALME-3M melanoma; MDA-MB-231 breast; MDA-N; NCI-H460 lung; NCI-H522 lung; OVCAR-8 ovarian; PC-3 prostate; SK-MEL-2 melanoma; SNB-19 CNS; SW-620 colon; UACC-257 melanoma.
Assay in all cases: NCI anticancer screen, dose series, 48 h

Structures are written as SMILES.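 Each compound was tested at five concentrations against cells in 96-well plates for 48 hours. TGI is the concentration that stops growth completely.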

In the case of `COC(=O)[C@@H]1COC(C(C)(C)C)N1C(=O)C(c1ccccc1)c1ccccc1` (stereo partly drawn), the TGI in the assay with A549 NSCLC is greater than 100 µM; in the assay on ACHN renal it was greater than 100 µM; in the assay with CAKI-1 renal, greater than 100 µM; in the assay on CCRF-CEM leukemia, 84.7 µM; in the assay with HCC-2998 colon, greater than 100 µM; in the assay with HL-60(TB) leukemia, 83.4 µM. In addition, the TGI in the assay with HS 578T breast is greater than 100 µM; in the assay on K-562 leukemia, 70.4 µM; in the assay on LOX IMVI melanoma it was 52.1 µM; in the assay on MALME-3M melanoma it was greater than 100 µM; in the assay on MDA-MB-231 breast, 81.8 µM; with MDA-N it was 69.2 µM. Moreover, the TGI with NCI-H460 lung, with NCI-H522 lung, with OVCAR-8 ovarian, in the assay with PC-3 prostate, in the assay on SK-MEL-2 melanoma and with SNB-19 CNS was greater than 100 µM throughout. Besides, the TGI in the assay on SW-620 colon and with UACC-257 melanoma was greater than 100 µM throughout.

For the compound `C=C1CC(C)(COc2ccc3c(C)cc(=O)oc3c2)OC1=O` (stereo not drawn), the TGI with A549 NSCLC was found to be 23.8 µM; in the assay on ACHN renal, 7.37 µM; in the assay on CAKI-1 renal it was 7.53 µM; in the assay on CCRF-CEM leukemia it was 2.46 µM; with HCC-2998 colon, 9.5 µM; with HL-60(TB) leukemia, 3.94 µM. Besides, the TGI is 31.9 µM in the assay on HS 578T breast; greater than 31.9 µM with K-562 leukemia; 5.11 µM in the assay with LOX IMVI melanoma; 6.75 µM in the assay on MALME-3M melanoma; 15.5 µM with MDA-MB-231 breast; 8.29 µM with MDA-N. Also, the TGI with NCI-H460 lung was found to be 20.8 µM; with NCI-H522 lung, 0.491 µM; in the assay on OVCAR-8 ovarian it was 14.8 µM; in the assay on PC-3 prostate, 13.5 µM; in the assay with SK-MEL-2 melanoma, 5.18 µM; with SNB-19 CNS, 28.4 µM. The TGI with SW-620 colon turned out to be 3.09 µM; with UACC-257 melanoma, 4.35 µM.

As to `C=C(CO)[C@H]1Oc2ccc(C(C)=O)cc2[C@@H]1O`, the TGI in the assay on A549 NSCLC, with ACHN renal, in the assay with CAKI-1 renal, in the assay with CCRF-CEM leukemia, in the assay on HCC-2998 colon and in the assay with HL-60(TB) leukemia was greater than 100 µM in each case. The TGI in the assay on HS 578T breast was greater than 100 µM; with K-562 leukemia, greater than 100 µM; with LOX IMVI melanoma, greater than 100 µM; in the assay with MALME-3M melanoma, greater than 100 µM; with MDA-MB-231 breast it was greater than 100 µM; with MDA-N, 56.5 µM. In addition, the TGI with NCI-H460 lung, in the assay with NCI-H522 lung, in the assay with OVCAR-8 ovarian, in the assay on PC-3 prostate, in the assay on SK-MEL-2 melanoma and in the assay with SNB-19 CNS was greater than 100 µM each time. For the same compound, the TGI in the assay with SW-620 colon and with UACC-257 melanoma was greater than 100 µM throughout.

On to `COC(=O)N/N=C(/c1nc2ccc([N+](=O)[O-])cc2[nH]c1=O)C(O)c1ccc(OC)c(OC)c1` (stereo not drawn), for which the TGI with A549 NSCLC, in the assay on ACHN renal, in the assay on CAKI-1 renal, in the assay on CCRF-CEM leukemia, in the assay on HCC-2998 colon and in the assay on HL-60(TB) leukemia was greater than 100 µM throughout. Further, the TGI in the assay on HS 578T breast was greater than 100 µM; in the assay with K-562 leukemia, greater than 100 µM; in the assay with LOX IMVI melanoma it was greater than 61.7 µM; in the assay on MALME-3M melanoma, greater than 100 µM; in the assay on MDA-MB-231 breast, greater than 100 µM; with MDA-N, greater than 100 µM. For the same compound, the TGI in the assay on NCI-H460 lung, in the assay on NCI-H522 lung, in the assay on OVCAR-8 ovarian, in the assay with PC-3 prostate, in the assay on SK-MEL-2 melanoma and with SNB-19 CNS was greater than 100 µM throughout. Besides, the TGI in the assay with SW-620 colon and with UACC-257 melanoma was greater than 100 µM each time.

For `CNc1ncnc2c1cnn2CCCCO`, the TGI with A549 NSCLC, in the assay with ACHN renal, in the assay with CAKI-1 renal, in the assay on CCRF-CEM leukemia, in the assay with HCC-2998 colon and in the assay with HL-60(TB) leukemia was greater than 100 µM throughout. Besides, the TGI in the assay on HS 578T breast, in the assay with K-562 leukemia, with LOX IMVI melanoma, in the assay on MALME-3M melanoma, in the assay on MDA-MB-231 breast and in the assay on MDA-N was greater than 100 µM in each case. Also, the TGI in the assay with NCI-H460 lung, in the assay on NCI-H522 lung, with PC-3 prostate, in the assay with SK-MEL-2 melanoma, with SNB-19 CNS and with SW-620 colon was greater than 100 µM in each case. For the same compound, the TGI with UACC-257 melanoma was greater than 100 µM.

With `Cn1cnc2c1c(=O)n(CCNCCO)c(=O)n2C`, the TGI in the assay with A549 NSCLC, with ACHN renal, with CAKI-1 renal, in the assay with CCRF-CEM leukemia, with HCC-2998 colon and in the assay on HL-60(TB) leukemia was greater than 100 µM in each case. In addition, the TGI in the assay with HS 578T breast, with K-562 leukemia, in the assay on LOX IMVI melanoma, with MALME-3M melanoma, in the assay with MDA-MB-231 breast and in the assay on MDA-N was greater than 100 µM each time. Further, the TGI in the assay on NCI-H460 lung, in the assay with NCI-H522 lung, with OVCAR-8 ovarian, with PC-3 prostate, in the assay on SK-MEL-2 melanoma and in the assay on SNB-19 CNS was greater than 100 µM throughout. Besides, the TGI in the assay with SW-620 colon and in the assay with UACC-257 melanoma was greater than 100 µM each time.

Turning to `CCCCCCC1CC(=O)C1(Cl)Cl` (stereo not drawn), the TGI was greater than 100 µM in the assay on A549 NSCLC; 35.8 µM in the assay with ACHN renal; 33.3 µM in the assay on CAKI-1 renal; 29.6 µM with CCRF-CEM leukemia; 57.4 µM with HCC-2998 colon; 44.1 µM in the assay with HL-60(TB) leukemia. Further, the TGI with HS 578T breast was greater than 100 µM; with K-562 leukemia, greater than 100 µM; with LOX IMVI melanoma it was 44.6 µM; with MALME-3M melanoma, 38.8 µM; in the assay on MDA-MB-231 breast, 68.5 µM; in the assay with MDA-N, 85 µM. The TGI in the assay with NCI-H522 lung is 34.6 µM; in the assay on OVCAR-8 ovarian, 59.5 µM; in the assay with PC-3 prostate it was greater than 100 µM; in the assay with SK-MEL-2 melanoma, 68.3 µM; in the assay with SNB-19 CNS, greater than 100 µM; in the assay on SW-620 colon, greater than 100 µM. Besides, the TGI in the assay on UACC-257 melanoma is 41.1 µM.
